Here are results for 22 molecules from ChEMBL document CHEMBL3112553, “Synthesis and biological evaluation of novel C6-amino substituted 4-azasteroidal purine nucleoside analogues” (Bioorg Med Chem Lett, 2014).

A value given as a limit tells only on which side of the number the result lay.

Format in all cases: functional, cell-based
For one assay, the system named is PC-3. The assay is described as follows: Antiproliferative activity against human PC3 cells by MTT assay. On the technique in general: Formazan colour is commonly taken as a measure of viable cells.
Another assay concerns MCF7. The assay is described as follows: Antiproliferative activity against human MCF7 cells by MTT assay.
A further assay relates to HeLa. Nature of the assay: Antiproliferative activity against human HeLa cells by MTT assay.

On to `C[C@]12CCC(=O)N[C@@H]1CC[C@@H]1[C@@H]2CC[C@]2(C)O[C@H](n3cnc4c(NCc5ccccc5)ncnc43)CC[C@@H]12`, for which the values for the half-inhibitory concentration (IC50) with PC-3, in the assay with MCF7 and in the assay with HeLa were 20.6 µM, greater than 100 µM and greater than 100 µM, respectively.
Consider `C[C@]12CCC(=O)N[C@@H]1CC[C@@H]1[C@@H]2CC[C@]2(C)O[C@H](n3cnc4c(NCCO)nc(Cl)nc43)CC[C@@H]12`, for which the IC50 with PC-3, in the assay on MCF7 and in the assay with HeLa was greater than 100 µM in each case.
For the molecule `C[C@]12CCC(=O)N[C@@H]1CC[C@@H]1[C@@H]2CC[C@]2(C)O[C@H](n3cnc4c(N(CCO)CCO)ncnc43)CC[C@@H]12`, the IC50 with PC-3, with MCF7 and in the assay with HeLa was greater than 100 µM each time.
Take `C[C@]12CCC(=O)N[C@@H]1CC[C@@H]1[C@@H]2CC[C@]2(C)O[C@H](n3cnc4c(N(CCO)CCO)nc(Cl)nc43)CC[C@@H]12`: the IC50 in the assay with PC-3, in the assay with MCF7 and with HeLa was greater than 100 µM throughout.
Take `C[C@]12CCC(=O)N[C@@H]1CC[C@@H]1[C@@H]2CC[C@]2(C)O[C@H](n3cnc4c(NCc5ccccc5)nc(Cl)nc43)CC[C@@H]12`: the values for the IC50 in the assay with PC-3, in the assay on MCF7 and with HeLa were 17.9 µM, 12.8 µM and 2.69 µM, respectively.
On to `Cc1ccc(CNc2ncnc3c2ncn3[C@@H]2CC[C@H]3[C@@H]4CC[C@H]5NC(=O)CC[C@]5(C)[C@H]4CC[C@]3(C)O2)cc1`, for which the half-maximal inhibitory concentration (IC50) turned out to be 44.2 µM in the assay on PC-3, 32.7 µM in the assay with MCF7 and 28.2 µM in the assay on HeLa.
Take `Cc1ccc(CNc2nc(Cl)nc3c2ncn3[C@@H]2CC[C@H]3[C@@H]4CC[C@H]5NC(=O)CC[C@]5(C)[C@H]4CC[C@]3(C)O2)cc1`: the IC50 in the assay with PC-3 amounted to 26.6 µM; with MCF7, 12.9 µM; in the assay on HeLa it was 67.2 µM.
As for `COc1ccc(CNc2ncnc3c2ncn3[C@@H]2CC[C@H]3[C@@H]4CC[C@H]5NC(=O)CC[C@]5(C)[C@H]4CC[C@]3(C)O2)cc1`, the IC50 in the assay with PC-3 is greater than 100 µM; in the assay on MCF7 it was 60.3 µM; in the assay on HeLa it was 38.7 µM.
Taken in the same sequence, the figures for `COc1ccc(CNc2nc(Cl)nc3c2ncn3[C@@H]2CC[C@H]3[C@@H]4CC[C@H]5NC(=O)CC[C@]5(C)[C@H]4CC[C@]3(C)O2)cc1` were greater than 100 µM, greater than 100 µM and 10.1 µM.
Take `C[C@]12CCC(=O)N[C@@H]1CC[C@@H]1[C@@H]2CC[C@]2(C)O[C@H](n3cnc4c(NCc5ccc(F)cc5)ncnc43)CC[C@@H]12`: the figures for the half-inhibitory concentration (IC50) with PC-3, in the assay on MCF7 and with HeLa were 91.5 µM, 34.8 µM and greater than 100 µM, respectively.
As to `C[C@]12CCC(=O)N[C@@H]1CC[C@@H]1[C@@H]2CC[C@]2(C)O[C@H](n3cnc4c(NCc5ccc(F)cc5)nc(Cl)nc43)CC[C@@H]12`, the IC50 with PC-3 is greater than 100 µM; in the assay on MCF7 it was 13.5 µM; with HeLa it was 59.1 µM.
Regarding `CCN(CC)c1ncnc2c1ncn2[C@@H]1CC[C@H]2[C@@H]3CC[C@H]4NC(=O)CC[C@]4(C)[C@H]3CC[C@]2(C)O1`, the IC50 is greater than 100 µM with PC-3, greater than 100 µM with MCF7 and 33.8 µM in the assay with HeLa.
Regarding `CCN(CC)c1nc(Cl)nc2c1ncn2[C@@H]1CC[C@H]2[C@@H]3CC[C@H]4NC(=O)CC[C@]4(C)[C@H]3CC[C@]2(C)O1`, the results for the IC50 with PC-3, in the assay with MCF7 and in the assay on HeLa were 58.1 µM, 16.4 µM and 31.1 µM, respectively.
On to `C[C@]12CCC(=O)N[C@@H]1CC[C@@H]1[C@@H]2CC[C@]2(C)O[C@H](n3cnc4c(NN)ncnc43)CC[C@@H]12`, for which the figures for the IC50 with PC-3, in the assay on MCF7 and with HeLa were 87.2 µM, 34.6 µM and greater than 100 µM, respectively.
Turning to `C[C@]12CCC(=O)N[C@@H]1CC[C@@H]1[C@@H]2CC[C@]2(C)O[C@H](n3cnc4c(NN)nc(Cl)nc43)CC[C@@H]12`, the IC50 in the assay on PC-3 is 2.99 µM; in the assay on MCF7, greater than 100 µM; in the assay on HeLa, greater than 100 µM.
`CN(C)c1ncnc2c1ncn2[C@@H]1CC[C@H]2[C@@H]3CC[C@H]4NC(=O)CC[C@]4(C)[C@H]3CC[C@]2(C)O1`: the IC50 with PC-3 was greater than 100 µM; with MCF7, 57.7 µM; with HeLa, 70.5 µM.
Taken in the same sequence, the figures for `CN(C)c1nc(Cl)nc2c1ncn2[C@@H]1CC[C@H]2[C@@H]3CC[C@H]4NC(=O)CC[C@]4(C)[C@H]3CC[C@]2(C)O1` were greater than 100 µM, greater than 100 µM and 61.3 µM.
Taken in the same sequence, the figures for `CC(CO)Nc1nc(Cl)nc2c1ncn2[C@@H]1CC[C@H]2[C@@H]3CC[C@H]4NC(=O)CC[C@]4(C)[C@H]3CC[C@]2(C)O1` (stereo partly specified) were 2.84 µM, greater than 100 µM and greater than 100 µM.
Take `C[C@]12CCC(=O)N[C@@H]1CC[C@@H]1[C@@H]2CC[C@]2(C)O[C@H](n3cnc4c(NCCN)ncnc43)CC[C@@H]12`: the IC50 with PC-3 is greater than 100 µM; with MCF7 it was greater than 100 µM; in the assay on HeLa, 66.2 µM.
Regarding `C[C@]12CCC(=O)N[C@@H]1CC[C@@H]1[C@@H]2CC[C@]2(C)O[C@H](n3cnc4c(NCCN)nc(Cl)nc43)CC[C@@H]12`, the IC50 is 63.4 µM in the assay with PC-3, 70.3 µM in the assay on MCF7 and 22.7 µM in the assay with HeLa.
Turning to `C[C@]12CCC(=O)N[C@@H]1CC[C@@H]1[C@@H]2CC[C@]2(C)O[C@H](n3cnc4c(NCCO)ncnc43)CC[C@@H]12`, the IC50 with PC-3 is 49.2 µM; with MCF7, greater than 100 µM; in the assay on HeLa, greater than 100 µM.
Consider `CC(CO)Nc1ncnc2c1ncn2[C@@H]1CC[C@H]2[C@@H]3CC[C@H]4NC(=O)CC[C@]4(C)[C@H]3CC[C@]2(C)O1` (stereo partly specified), for which the IC50 with PC-3 was 15.8 µM; with MCF7 it was greater than 100 µM; with HeLa it was greater than 100 µM.

The IC50 is the concentration at which inhibition is half-maximal. The low end stands for greater potency in that assay, the high end for weaker potency in that assay.
